In PMC8092108, “Mycophenolate suppresses inflammation by inhibiting prostaglandin synthases: a study of molecular and experimental drug repurposing” (PeerJ, 2021):
pIC50: −log10 of the molar value. Values joined by “and” are separate entries in the source; they are usually repeats but may differ in a detail not shown here. Equal entries are not always repeated. Where two headings read alike, the source gives them in different places. One block for each compound: values may come before it.

How the values were obtained:
[1] = molecular target: T1, COX-2 (Homo sapiens, UniProt P35354); test: COX inhibitor screening assay, COX-2; format: biochemical
T1 construct: purchased
T1 sequence (P35354 18-604): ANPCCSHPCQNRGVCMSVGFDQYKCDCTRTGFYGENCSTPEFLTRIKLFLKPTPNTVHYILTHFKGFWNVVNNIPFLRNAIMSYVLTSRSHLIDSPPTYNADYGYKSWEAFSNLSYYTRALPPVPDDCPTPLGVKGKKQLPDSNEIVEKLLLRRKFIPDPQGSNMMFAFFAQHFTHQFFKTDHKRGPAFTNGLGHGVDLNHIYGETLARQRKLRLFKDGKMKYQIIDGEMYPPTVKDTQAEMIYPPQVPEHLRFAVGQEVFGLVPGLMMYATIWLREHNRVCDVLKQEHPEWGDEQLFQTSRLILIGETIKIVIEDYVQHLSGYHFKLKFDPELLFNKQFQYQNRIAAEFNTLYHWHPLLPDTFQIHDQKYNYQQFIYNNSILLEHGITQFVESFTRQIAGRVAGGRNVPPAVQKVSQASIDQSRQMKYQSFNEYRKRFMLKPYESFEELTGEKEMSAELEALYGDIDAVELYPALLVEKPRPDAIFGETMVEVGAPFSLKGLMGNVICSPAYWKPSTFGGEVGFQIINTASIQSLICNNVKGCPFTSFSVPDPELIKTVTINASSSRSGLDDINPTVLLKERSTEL
Protocol: (§1) The inhibitory effects of the drugs MMF and MPA on COX-1 and COX-2 were measured using the COX inhibitor screening assay kit and LOX inhibitor screening kit. […] Briefly, the reaction buffer (Tris–HCl buffer, pH 8.0) containing 5 mM EDTA, 2 mM phenol, and 1 µM hematin was measured into test tubes. The test drugs were dissolved in dimethyl sulfoxide and added to the tubes to final concentrations of […]. COX-1 or COX-2 was added to the test tubes and preincubated for 10 min at 37 °C. Arachidonic acid was then added, and the tubes were incubated for 2 min at 37 °C. The enzyme immunoassay was used to measure the concentration of the product prostaglandin F2α (PGF2α). The estimated values were determined after comparison to the predetermined standard curve. The IC50 was determined after three different experiments. The selectivity index was calculated from Eq. (1):
(§2) (1) Selectivity index=IC50COX−1/IC50COX−2

[2] = molecular target: T2, COX-1 (Ovis aries, UniProt P05979); test: COX inhibitor screening assay, COX-1; format: biochemical
T2 construct: purchased
T2 sequence (P05979 25-600): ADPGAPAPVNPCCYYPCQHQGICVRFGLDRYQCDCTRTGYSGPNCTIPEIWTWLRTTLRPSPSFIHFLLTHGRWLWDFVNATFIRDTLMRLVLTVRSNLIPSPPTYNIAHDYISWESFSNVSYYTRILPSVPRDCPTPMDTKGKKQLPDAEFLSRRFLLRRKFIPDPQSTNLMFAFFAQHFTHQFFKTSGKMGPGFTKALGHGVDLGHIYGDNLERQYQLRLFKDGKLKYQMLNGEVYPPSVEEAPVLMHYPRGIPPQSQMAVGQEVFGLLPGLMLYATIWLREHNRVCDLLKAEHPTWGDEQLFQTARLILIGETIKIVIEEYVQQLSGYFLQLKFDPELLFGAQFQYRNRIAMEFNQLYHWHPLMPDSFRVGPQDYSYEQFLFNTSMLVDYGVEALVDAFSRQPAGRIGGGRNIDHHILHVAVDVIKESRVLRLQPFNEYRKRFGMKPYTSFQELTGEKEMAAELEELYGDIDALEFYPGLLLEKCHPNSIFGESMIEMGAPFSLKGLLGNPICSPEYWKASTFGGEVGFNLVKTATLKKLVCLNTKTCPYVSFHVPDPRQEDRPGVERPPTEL
Protocol: as §1, §2

[3] = cited from earlier work
[4] = system: 12-LOX; test: LOX inhibitor screening kit; format: biochemical
Protocol: The inhibitory effects of the drugs MMF and MPA on COX-1 and COX-2 were measured using the COX inhibitor screening assay kit and LOX inhibitor screening kit. The assay was performed according to the manufacturer’s directions and previously described methods ([Chowdhury et al., 2008]; [Lee et al., 2004]). Briefly, the reaction buffer (Tris–HCl buffer, pH 8.0) containing 5 mM EDTA, 2 mM phenol, and 1 µM hematin was measured into test tubes. The test drugs were dissolved in dimethyl sulfoxide and added to the tubes to final concentrations of […]. COX-1 or COX-2 was added to the test tubes and preincubated for 10 min at 37 °C. Arachidonic acid was then added, and the tubes were incubated for 2 min at 37 °C. The enzyme immunoassay was used to measure the concentration of the product prostaglandin F2α (PGF2α). The estimated values were determined after comparison to the predetermined standard curve. The IC50 was determined after three different experiments. The selectivity index was calculated from Eq. (1): […]

[5] = system: carrageenan-induced paw edema; test: Carrageenan-induced rat paw edema test; format: in vivo; conditions: for Rat paw edema after treatment: MMF 12.5–50 mg/kg, indomethacin or celecoxib 10 mg/kg oral; for Rat paw size: individual rats 1-7
Protocol: The in vivo assay was performed by the rat paw edema inhibition test as previously described ([Morris, 2003]; [Winter, Risley & Nuss, 1962]). Forty-nine male adult albino rats weighing […] were obtained from the Animal Breeding Center at the College of Veterinary Medicine, King Faisal University, and were randomly divided into seven groups (n = 7/group). The animal groups included the nontreated control group, carrageenan group, and five groups receiving carrageenan and treated with either indomethacin, celecoxib, or MMF at three doses (12.5, 25, and 50 mg/kg). All rats were allowed free access to food and water. All cages were kept in controlled rooms at 25 °C and exposed to a 12-h light/dark cycle. MMF and two reference drugs, indomethacin and celecoxib, were suspended in 1% NaCMC in normal saline. A 1% carrageenan solution in normal saline was injected into the subplantar area of the right hind paw of rats. One hour before injection of carrageenan, rats were given either indomethacin or celecoxib at a dose rate of 10 mg/kg or MMF at three dose levels of 12.5, 25, and 50 mg/kg by oral administration. […] The measurements were blind to avoid measurement bias. The King Faisal University Ethics Committee (approval no. KFU-REC/2020-10-11) approved all animal experiments. Since no samples were taken from rats, there were no anesthesia procedures. The size of the hind paw was only measured in non-anesthetized rats. At the end of the experiment, all rats were euthanized according to the regulations of the King Faisal University Ethics Committee by an overdose of pentobarbital (200 mg/kg IP) and decapitation. The effect of MMF at different doses on relieving rat paw edema was compared with the control and standard NSAID-treated groups. Significant differences were determined by one-way analysis of variance (ANOVA) with Tukey’s post hoc test. All steps were implemented using GraphPad prism software (GraphPad Software, La Jolla, CA, USA).

pIC50 [1]: 6.85
Selectivity index ([1]; IC50 COX-1/IC50 COX-2): 33.00
pIC50 [2]: 5.34
pIC50 ([4]; printed as 5-LOX in abstract and b38, read-out: IC50 5-LOX): 5.35
pIC50 ([4]; read-out: IC50 12-LOX): 5.35
SMILES: COc1c(C)c2c(c(O)c1C/C=C(\C)CCC(=O)O)C(=O)OC2 [Mycophenolic acid, mycophenolic acid]
Time to maximum serum MPA concentration ([3]; after MMF administration, ref Park, 2011): 60 to 90 min
Clinically attainable MPA concentration ([3]; ref Margolis et al., 1999): 1 to 10 µM

SMILES: Cc1ccc(-c2cc(C(F)(F)F)nn2-c2ccc(S(N)(=O)=O)cc2)cc1 [Celecoxib, celecoxib]
Rat paw edema after treatment [5]: significantly relieved
Rat paw size ([5]; celecoxib 10 mg/kg oral, Time (h) 1): 0.75 cm (4×) and 0.71 cm and 0.7 cm and 0.73 cm
Rat paw size ([5]; celecoxib 10 mg/kg oral, Time (h) 2): 0.75 cm and 0.65 cm (2×) and 0.7 cm and 0.67 cm and 0.68 cm and 0.6 cm
Rat paw size ([5]; celecoxib 10 mg/kg oral, Time (h) 3): 0.55 cm and 0.45 cm and 0.5 cm (3×) and 0.49 cm and 0.4 cm
Rat paw size ([5]; celecoxib 10 mg/kg oral, Time (h) 4): 0.5 cm (2×) and 0.48 cm and 0.45 cm (3×) and 0.4 cm
Rat paw size ([5]; celecoxib 10 mg/kg oral, Time (h) 5): 0.4 cm (3×) and 0.45 cm and 0.43 cm and 0.38 cm and 0.42 cm
Rat paw size ([5]; celecoxib 10 mg/kg oral, Time (h) 6): 0.6 cm (2×) and 0.56 cm and 0.55 cm (2×) and 0.65 cm and 0.5 cm

pIC50 ([4]; read-out: IC50 12-LOX): 5.48
SMILES: O=c1c(O)c(-c2ccc(O)c(O)c2)oc2cc(O)cc(O)c12 [Quercetin]

SMILES: COc1ccc2c(c1)c(CC(=O)O)c(C)n2C(=O)c1ccc(Cl)cc1 [Indomethacin, indomethacin]
Rat paw edema after treatment [5]: significantly relieved
Rat paw size ([5]; indomethacin 10 mg/kg oral, Time (h) 1): 0.7 cm (4×) and 0.75 cm (3×)
Rat paw size ([5]; indomethacin 10 mg/kg oral, Time (h) 2): 0.7 cm and 0.6 cm (3×) and 0.55 cm (2×) and 0.5 cm
Rat paw size ([5]; indomethacin 10 mg/kg oral, Time (h) 3): 0.45 cm and 0.43 cm and 0.4 cm (2×) and 0.42 cm and 0.5 cm and 0.44 cm
Rat paw size ([5]; indomethacin 10 mg/kg oral, Time (h) 4): 0.35 cm and 0.38 cm and 0.4 cm (3×) and 0.39 cm and 0.37 cm
Rat paw size ([5]; indomethacin 10 mg/kg oral, Time (h) 5): 0.35 cm (2×) and 0.37 cm (3×) and 0.4 cm (2×)
Rat paw size ([5]; indomethacin 10 mg/kg oral, Time (h) 6): 0.55 cm and 0.52 cm and 0.5 cm and 0.65 cm and 0.6 cm (2×) and 0.59 cm
